The text below walks through data of patent US11116735B2, “Use of substituted benzylideneguanidine derivatives as synergists for polymyxin antibiotics” (GUANGZHOU INSIGHTER BIOTECHNOLOGY CO., LTD., priority 2015, dated 2021).

Structures are written as SMILES.

One assay concerns E. coli 5F-1. The assay is described as follows: MIC by doubling dilution, colistin sulfate-resistant E. coli 5F-1. To be noted: for In vitro minimum inhibitory concentration (MIC) of the substance alone: E. coli 5F-1, colistin sulfate-resistant, derivatives as hydrochlorides; for In vitro MIC of colistin sulfate in the presence of the substituted benzylideneguanidine derivative: E. coli 5F-1, resistant, culture comprised 20.0 ppm of the derivative (hydrochloride).

The next assay deals with E. coli 2G-7. The assay is described as follows: MIC by doubling dilution, colistin sulfate-resistant E. coli 2G-7. To be noted: for In vitro minimum inhibitory concentration (MIC) of the substance alone: E. coli 2G-7, colistin sulfate-resistant, derivatives as hydrochlorides; for In vitro MIC of colistin sulfate in the presence of the substituted benzylideneguanidine derivative: E. coli 2G-7, resistant, culture comprised 20.0 ppm of the derivative (hydrochloride).

In a further assay the test system is E. coli 2S-19. The assay is described as follows: MIC by doubling dilution, colistin sulfate-susceptible E. coli 2S-19. Type of assay: cell-based, Escherichia coli. As to conditions: for In vitro minimum inhibitory concentration (MIC) of the substance alone: E. coli 2S-19, colistin sulfate-susceptible, derivatives as hydrochlorides; for In vitro MIC of colistin sulfate in the presence of the substituted benzylideneguanidine derivative: E. coli 2S-19, culture comprised 20.0 ppm of the derivative (hydrochloride), colistin sulfate serially diluted.

The test system of another assay is E. coli 3B-24. As to the kind of experiment: MIC by doubling dilution, colistin sulfate-susceptible E. coli 3B-24. Type of assay: cell-based, Escherichia coli. As to conditions: for In vitro minimum inhibitory concentration (MIC) of the substance alone: E. coli 3B-24, colistin sulfate-susceptible, derivatives as hydrochlorides; for In vitro MIC of colistin sulfate in the presence of the substituted benzylideneguanidine derivative: E. coli 3B-24, culture comprised 20.0 ppm of the derivative (hydrochloride), colistin sulfate serially diluted.

Another assay deals with E. coli 3H-4. The assay is described as follows: MIC by doubling dilution, colistin sulfate-resistant E. coli 3H-4. As to conditions: for In vitro minimum inhibitory concentration (MIC) of the substance alone: E. coli 3H-4, colistin sulfate-resistant, derivatives as hydrochlorides; for In vitro MIC of colistin sulfate in the presence of the substituted benzylideneguanidine derivative: E. coli 3H-4, resistant, culture comprised 20.0 ppm of the derivative (hydrochloride).

In a further assay the test system is E. coli 3Y-9. The assay is described as follows: MIC by doubling dilution, colistin sulfate-susceptible E. coli 3Y-9. Type of assay: cell-based, Escherichia coli. As to conditions: for In vitro minimum inhibitory concentration (MIC) of the substance alone: E. coli 3Y-9, colistin sulfate-susceptible, derivatives as hydrochlorides; for In vitro MIC of colistin sulfate in the presence of the substituted benzylideneguanidine derivative: E. coli 3Y-9, culture comprised 20.0 ppm of the derivative (hydrochloride), colistin sulfate serially diluted.

In another assay the test system is E. coli 5W-7. As to the kind of experiment: MIC by doubling dilution, colistin sulfate-susceptible E. coli 5W-7. Type of assay: cell-based, Escherichia coli. As to conditions: for In vitro minimum inhibitory concentration (MIC) of the substance alone: E. coli 5W-7, colistin sulfate-susceptible, derivatives as hydrochlorides; for In vitro MIC of colistin sulfate in the presence of the substituted benzylideneguanidine derivative: E. coli 5W-7, culture comprised 20.0 ppm of the derivative (hydrochloride), colistin sulfate serially diluted.

The next assay deals with E. coli 4D-6. As to the kind of experiment: MIC by doubling dilution, colistin sulfate-resistant E. coli 4D-6. To be noted: for In vitro minimum inhibitory concentration (MIC) of the substance alone: E. coli 4D-6, colistin sulfate-resistant, derivatives as hydrochlorides; for In vitro MIC of colistin sulfate in the presence of the substituted benzylideneguanidine derivative: E. coli 4D-6, resistant, culture comprised 20.0 ppm of the derivative (hydrochloride).

Description for E. coli 2G-7: (§1) In vitro minimum inhibitory concentrations of colistin sulfate against the strains where the cultures respectively comprised 20.0 ppm of the substituted benzylideneguanidine derivatives were also measured.
Description for E. coli 3H-4: as §1
Description for E. coli 4D-6: as §1
Description for E. coli 5F-1: as §1

As to `N=C(NN=Cc1ccc([N+](=O)[O-])cc1)NN=Cc1ccc([N+](=O)[O-])cc1` [Compound 15], the “In vitro minimum inhibitory concentration (MIC) of the substance alone” value in the assay with E. coli 5F-1, with E. coli 2G-7, in the assay with E. coli 2S-19, in the assay on E. coli 3B-24, in the assay with E. coli 3H-4 and in the assay on E. coli 3Y-9 was over 800 ppm each time. The “In vitro minimum inhibitory concentration (MIC) of the substance alone” value in the assay with E. coli 5W-7 and in the assay on E. coli 4D-6 was over 800 ppm each time. Besides, the “In vitro MIC of colistin sulfate in the presence of the substituted benzylideneguanidine derivative” value (shortened to “In vitro MIC of colistin sulfate”) in the assay on E. coli 5F-1 was determined as 8 ppm; with E. coli 2G-7 it was 4 ppm; in the assay on E. coli 2S-19, 1.00 ppm; in the assay with E. coli 3B-24, 1.00 ppm; in the assay with E. coli 3H-4, 4 ppm; with E. coli 3Y-9, 1.00 ppm. Besides, the “In vitro MIC of colistin sulfate” value in the assay with E. coli 5W-7 came out at 0.50 ppm; in the assay with E. coli 4D-6, 16 ppm.

In the case of `CCSc1ccc(C=NNC(=N)NN=Cc2ccc(SCC)cc2)cc1` [Compound 9], the “In vitro minimum inhibitory concentration (MIC) of the substance alone” value in the assay with E. coli 5F-1, in the assay with E. coli 2G-7, in the assay with E. coli 2S-19, with E. coli 3B-24, in the assay on E. coli 3H-4 and with E. coli 3Y-9 was over 800 ppm throughout. The “In vitro minimum inhibitory concentration (MIC) of the substance alone” value with E. coli 5W-7 and in the assay with E. coli 4D-6 was over 800 ppm each time. The “In vitro MIC of colistin sulfate” value in the assay on E. coli 5F-1 is given as 8 ppm; with E. coli 2G-7 it was 4 ppm; in the assay with E. coli 2S-19 it was 1.00 ppm; in the assay on E. coli 3B-24, 1.00 ppm; with E. coli 3H-4, 4 ppm; with E. coli 3Y-9, 1.00 ppm. In addition, the “In vitro MIC of colistin sulfate” value with E. coli 5W-7 turned out to be 0.50 ppm; in the assay with E. coli 4D-6, 16 ppm.

As to `NC(=NN=Cc1ccc(C(F)(F)F)cc1)NN=Cc1ccc(C(F)(F)F)cc1` [Compound 14], the “In vitro minimum inhibitory concentration (MIC) of the substance alone” value in the assay on E. coli 5F-1, in the assay on E. coli 2G-7, with E. coli 2S-19, with E. coli 3B-24, in the assay with E. coli 3H-4 and with E. coli 3Y-9 was over 800 ppm in each case. For the same molecule, the “In vitro minimum inhibitory concentration (MIC) of the substance alone” value with E. coli 5W-7 and in the assay on E. coli 4D-6 was over 800 ppm in each case. Besides, the “In vitro MIC of colistin sulfate” value is recorded as 32 ppm in the assay with E. coli 5F-1; 16 ppm in the assay with E. coli 2G-7; 1.00 ppm with E. coli 2S-19; 1.00 ppm in the assay on E. coli 3B-24; 8 ppm in the assay with E. coli 3H-4; 1.00 ppm with E. coli 3Y-9. Also, the “In vitro MIC of colistin sulfate” value in the assay on E. coli 5W-7 is listed as 0.50 ppm; with E. coli 4D-6 it was 32 ppm.

With `CCOc1ccc(C=NN=C(N)NN=Cc2ccc(OCC)cc2)cc1` [Compound 2], the “In vitro minimum inhibitory concentration (MIC) of the substance alone” value in the assay with E. coli 5F-1, in the assay on E. coli 2G-7, in the assay on E. coli 2S-19, with E. coli 3B-24, in the assay on E. coli 3H-4 and in the assay on E. coli 3Y-9 was over 800 ppm in each case. Also, the “In vitro minimum inhibitory concentration (MIC) of the substance alone” value with E. coli 5W-7 and with E. coli 4D-6 was over 800 ppm each time. Also, the “In vitro MIC of colistin sulfate” value in the assay with E. coli 5F-1 is 4.0 ppm; in the assay with E. coli 2G-7 it was 2.0 ppm; with E. coli 2S-19, 2.00 ppm; with E. coli 3B-24 it was 2.00 ppm; in the assay with E. coli 3H-4, 2.0 ppm; in the assay on E. coli 3Y-9, 2.00 ppm. The “In vitro MIC of colistin sulfate” value in the assay on E. coli 5W-7 is 1.00 ppm; with E. coli 4D-6, 8.0 ppm.

On to `CC(C)c1ccc(C=NNC(=N)NN=Cc2ccc(C(C)C)cc2)cc1` [Compound 11], for which the “In vitro minimum inhibitory concentration (MIC) of the substance alone” value in the assay with E. coli 5F-1, in the assay on E. coli 2G-7, with E. coli 2S-19, in the assay on E. coli 3B-24, in the assay with E. coli 3H-4 and with E. coli 3Y-9 was over 800 ppm each time. Further, the “In vitro minimum inhibitory concentration (MIC) of the substance alone” value in the assay with E. coli 5W-7 and in the assay with E. coli 4D-6 was over 800 ppm in each case. Moreover, the “In vitro MIC of colistin sulfate” value amounted to 16 ppm in the assay with E. coli 5F-1; 16 ppm with E. coli 2G-7; 1.00 ppm in the assay with E. coli 2S-19; 2.00 ppm in the assay with E. coli 3B-24; 16 ppm in the assay with E. coli 3H-4; 1.00 ppm with E. coli 3Y-9. Also, the “In vitro MIC of colistin sulfate” value in the assay with E. coli 5W-7 worked out at 0.50 ppm; in the assay with E. coli 4D-6, 64 ppm.

For `COC(=O)c1ccc(C=NN=C(N)NN=Cc2ccc(C(=O)OC)cc2)cc1` [Compound 12], the “In vitro minimum inhibitory concentration (MIC) of the substance alone” value in the assay on E. coli 5F-1, with E. coli 2G-7, with E. coli 2S-19, with E. coli 3B-24, with E. coli 3H-4 and in the assay with E. coli 3Y-9 was over 800 ppm throughout. For the same molecule, the “In vitro minimum inhibitory concentration (MIC) of the substance alone” value with E. coli 5W-7 and with E. coli 4D-6 was over 800 ppm in each case. Further, the “In vitro MIC of colistin sulfate” value was found to be 8 ppm in the assay on E. coli 5F-1; 4 ppm in the assay on E. coli 2G-7; 1.00 ppm in the assay with E. coli 2S-19; 1.00 ppm in the assay on E. coli 3B-24; 4 ppm in the assay with E. coli 3H-4; 1.00 ppm in the assay on E. coli 3Y-9. For the same molecule, the “In vitro MIC of colistin sulfate” value in the assay with E. coli 5W-7 came to 0.50 ppm; with E. coli 4D-6, 16 ppm.
